Active and inactive are the calls of the source.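 Rule for the calls: active = IC50 against T. cruzi CYP51 below a set limit; inactive = the rest.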
Biological target: Sterol 14-alpha demethylase (Trypanosoma cruzi (strain CL Brener)) (UniProt Q7Z1V1)
Assay: T. cruzi sterol 14-alpha demethylase inhibition – biochemical, recombinant enzyme, mechanism study for T. cruzi antiparasitic project, dose response (AID 1159558);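 note: enzyme in bacterial membranes with Anopheles gambiae CYP reductase and cytochrome b5 partners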
Settings: recombinant T. cruzi CYP51, BOMCC fluorescence

Sequence of Sterol 14-alpha demethylase (Trypanosoma cruzi (strain CL Brener)) (Q7Z1V1 whole entry, looked up): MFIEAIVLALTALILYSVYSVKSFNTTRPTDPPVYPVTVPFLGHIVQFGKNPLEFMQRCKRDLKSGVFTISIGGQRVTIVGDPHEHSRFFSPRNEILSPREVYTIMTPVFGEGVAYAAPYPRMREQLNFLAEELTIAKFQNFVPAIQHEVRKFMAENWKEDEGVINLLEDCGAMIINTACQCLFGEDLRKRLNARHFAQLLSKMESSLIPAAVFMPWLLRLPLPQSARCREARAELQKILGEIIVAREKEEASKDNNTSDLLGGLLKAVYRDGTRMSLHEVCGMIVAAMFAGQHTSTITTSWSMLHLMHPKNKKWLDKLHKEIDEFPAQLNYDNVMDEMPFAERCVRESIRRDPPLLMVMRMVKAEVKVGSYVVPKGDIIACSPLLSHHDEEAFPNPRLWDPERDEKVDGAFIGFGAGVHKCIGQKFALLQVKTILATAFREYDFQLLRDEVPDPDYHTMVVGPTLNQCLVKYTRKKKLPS

Compound | IC50
O=C1CSC(c2cccnc2)N1c1ccc(Cl)cc1Cl (stereo unspecified) | 0.16 µM
CC(=O)NCCNc1cc(-c2ccnc(Nc3cccc(Cl)c3)n2)ccn1 | 5 µM
Clc1ccc(Sc2cnccc2N2CCOCC2)cc1 | 0.032 µM
CCC(CC)C(=O)Nc1ccc(-c2nnc(-c3ccc(OC)cc3)o2)cc1 | 13 µM
N#Cc1cc(N2CCCC2=O)ccc1Sc1ccccc1CO | 20 µM
N#Cc1ccc(Br)cc1[N+](=O)[O-] | 50 µM
CC(=O)Nc1ccc(-c2csc(NC(=O)c3ccc([N+](=O)[O-])s3)n2)cc1 | 6.3 µM
Cc1cn[nH]c1C1CCCN(Cc2nc3ccccc3n2C)C1 (stereo unspecified) | 1.3 µM
CC(C)c1cc(C(=O)N2CCCC(c3cc4ncccc4[nH]3)C2)on1 (stereo unspecified) | 50 µM
CN(Cc1nc2ccc(C(=O)NCC3CCCCC3)cc2[nH]1)C1CCCc2cccnc21 (stereo unspecified) | 40 µM
COc1ccc(CN(C)Cc2ccncc2)cc1-c1ccc(S(=O)(=O)NC2CCC2)s1 | 0.079 µM
COc1ccc2nccc(NC(=O)C3(OC)CCN(CC(O)c4ccc5c(c4)OCCO5)CC3)c2n1 (stereo unspecified) | 1 µM
CCOc1ccc(CC(=O)N2c3ccccc3CC2C(=O)NC)cc1 (stereo unspecified) | > 100 µM (inactive)
CC(=O)Nc1nc(-c2cc(C)ccc2C)c(C)s1 | > 100 µM (inactive)
Cc1ccc(NC(=O)c2ccnc(N3CCCC3)c2)cc1-c1cc(C(N)=O)ccc1C | 4 µM
CC(C)n1c(-c2nonc2N)nc2cccc(OCCN3CCCC3)c21 | 40 µM
Cc1nc2c(-c3n[nH]c(-c4ccccc4N)n3)cccn2c1C | 3.2 µM
CN(C)Cc1ccc(-c2ccc(S(=O)(=O)NCC3CCCO3)c(F)c2)cc1 (stereo unspecified) | 40 µM
N#Cc1cccc(CN2CCC(N(Cc3cccnc3)C(=O)c3cc(F)c(F)cc3F)CC2)c1 | 0.05 µM
Cc1nc(-c2ccc3c(c2)OCO3)sc1C(=O)NCc1ccc2c(c1)OCO2 | 5 µM
CC(C)N(C(=O)CN1C(=O)C(N)C(=O)N(c2ccccc2)c2ccccc21)c1ccccc1 (stereo unspecified) | 0.32 µM
OC[C@@H](Nc1nccc(-c2c(-c3ccc(F)cc3)ncn2C2CCNCC2)n1)c1ccccc1 | 25 µM
CCc1ccccc1[C@@H](C)NC(=O)c1cnc2c(cnn2CC)c1NC1CCN(C(N)=O)CC1 | 79 µM
COc1ccc(Cl)cc1CC(=O)Nc1n[nH]c(-c2ccccn2)n1 | > 100 µM (inactive)
COCc1cc(Nc2ccc(Cl)cc2)nc(-c2ccccn2)n1 | > 100 µM (inactive)
O=C(Cn1cnc([N+](=O)[O-])n1)Nc1ccc(Cl)cc1C(=O)c1ccccc1 | 10 µM

Compound | IC50
N#Cc1ccc(S(=O)(=O)N2CCC3(CCN(c4ccccc4)C3=O)CC2)cc1 | > 100 µM (inactive)
O=C(Cc1ccccc1)Nc1ccccc1C(=O)Nc1nccs1 | > 100 µM (inactive)
CC(C(=O)Nc1ccccc1F)N(C)CC(=O)Nc1cccc2ccccc12 (stereo unspecified) | 16 µM
COCCn1c(-c2ccc3c(c2)OCO3)cnc1NCc1ccccc1OC | 5 µM
O=S(=O)(c1cccc(CSc2nnc(-c3ccc4c(c3)OCO4)o2)c1)N1CCOCC1 | 13 µM
CN(C)CCOc1ccc(N2CCN(S(=O)(=O)c3ccc(Cl)cc3)CC2)cc1 | 25 µM
CC(C)CC(=O)NC(c1cccs1)c1ccc2cccnc2c1O (stereo unspecified) | 50 µM
O=C(Nc1nc(-c2ccccn2)cs1)N1C[C@H]2C[C@@]2(c2ccccc2)C1 | 40 µM
Cc1ccc(Nc2nc(-c3ccccn3)cc(N3CCCC(O)C3)n2)cc1 (stereo unspecified) | 25 µM
O=C(O)[C@H]1C[C@@H]1c1ccc(-c2ccc(CN(CCc3ccccn3)C(=O)C3CCC3)cc2)cc1 | 20 µM
CCN(CC)c1ccc(S(=O)(=O)N(CC)CC)c2nonc12 | 25 µM
CS(=O)(=O)c1ccc(Nc2nccc(Nc3n[nH]c4ccc(F)cc34)n2)c(F)c1 | 40 µM
CC(C)Nc1nccc(-c2c(-c3ccc(F)cc3)ncn2C2CCOCC2)n1 | > 100 µM (inactive)
Cc1cccc(N2CCCN(Cc3c[nH]c4ccccc34)CC2)n1 | > 100 µM (inactive)
Cc1ccc(S(C)(=O)=O)cc1Nc1nccc(-c2sc(N)nc2-c2ccccc2)n1 | > 100 µM (inactive)
CC(C)S(=O)(=O)c1ccc(-c2cnc(N)c3cc(-c4ccnc(N)n4)ccc23)cc1 | 16 µM
CCN(CC)c1nc(Nc2ccncc2)nc2ccccc12 | > 100 µM (inactive)
CCc1cccc(-n2nc(OCC(=O)NC3CCCC3)c3cccnc32)c1 | > 100 µM (inactive)
O=C(Nc1nc2ccccc2[nH]1)c1ccc2nc[nH]c2c1 | 5 µM
O=C(NCCc1cccnc1)c1csc(-c2ccccc2)n1 | 0.063 µM
N#CN1CC[C@@H](NC(=O)Nc2ccccc2Oc2ccccc2)C1 | > 100 µM (inactive)
Cc1ccccc1CNc1cc(C2CC2)nc(-c2nccn2C)n1 | 16 µM
NC(=O)c1cc(NC(=O)c2ccccc2COc2ccccc2)ccc1Cl | 79 µM
CC(c1ccccn1)N(C)Cc1nc2ccccc2n1C(C)C (stereo unspecified) | 32 µM
Cc1c(CNC(=O)c2ccc(Cn3cc(Cl)c([N+](=O)[O-])n3)cc2)cnn1C | > 100 µM (inactive)
Cc1ccc(NC(=O)c2ccnc(N3CCCC3)c2)cc1-c1ccsc1C(N)=O | 1.3 µM

Compound | IC50
CC(CCc1ccccc1)NC(=O)CN(Cc1ccccn1)Cc1ccccn1 (stereo unspecified) | 63 µM
Nc1ncnc2c1ncn2[C@@H]1O[C@H](CO)C[C@H]1O | > 100 µM (inactive)
O=c1[nH]ccc2ccc(-c3ccncc3)cc12 | 0.016 µM
COc1ccc(CNc2cc(C3CC3)nc(-c3nccn3C)n2)cc1 | 5 µM
O=C1CN(C(=O)c2cccc(Nc3ncc(-c4ccc5c(c4)OCO5)cn3)c2)CCN1 | 25 µM
O=C(NCc1ccc(-n2cccc2)cc1)c1nc(Cn2ccc([N+](=O)[O-])n2)no1 | > 100 µM (inactive)
Cc1cc(Br)cc(C(=O)c2c(C(C)C)c(=O)[nH]c(=O)n2Cc2ccnc(N)c2)c1 | 0.016 µM
Cc1nc(C(=O)Nc2ccc3c(c2)OCO3)nn1-c1ccc(F)cc1 | 40 µM
COc1cccc(C(=O)[C@H]2C[C@@H]2CN(Cc2ccccn2)Cc2ccccn2)c1 | 32 µM
N#Cc1cnc(Nc2cccc(CCN3CCOCC3)c2)nc1Nc1ccccc1C(N)=O | 10 µM
C[C@@H](Oc1cc(-n2cnc3ccc(CC(O)CO)cc32)sc1C(N)=O)c1ccccc1Cl (stereo partly specified) | 25 µM
Cc1ccc(C)c(OC2CCN(C(=O)C(C)n3ccnc3)CC2)c1 (stereo unspecified) | 0.1 µM
O=C(CSc1nnc2ccc(-c3ccc(F)cc3)nn12)N1CCCCC1 | > 100 µM (inactive)
CC(C)(C)C(=O)NCCc1csc(-c2ccc(F)cc2)n1 | 79 µM
CC(C)COC(=O)Nc1ccc(N2CCC(CNS(=O)(=O)c3ccccc3)CC2)c(F)c1 | 2 µM
COc1ccc(-c2nc3ccncc3c(=O)n2CCOc2ccccc2)cc1 | 0.04 µM
O=C(Nc1cccc(F)c1)N1CCC(Oc2cccc(-c3cccnc3)c2)CC1 | 0.16 µM
O=C(Nc1nc(-c2ccccn2)cs1)c1ccc(S(=O)(=O)N2CCCCC2)cc1 | 6.3 µM
COc1cc(C(C)C)c(S(C)(=O)=O)cc1C(=O)N1CCN(c2ccccc2Cl)CC1 | > 100 µM (inactive)
C[C@@H](Oc1cc(-n2cnc3ccc(C(O)CO)cc32)sc1C(N)=O)c1ccccc1C(F)(F)F (stereo partly specified) | 25 µM
Cc1nn(-c2nc3ccccc3[nH]2)c2c1C(c1ccc(O)cc1)CC(=O)N2 (stereo unspecified) | 25 µM
O=C(Nc1ccc(C(F)(F)F)cc1)NC1(C(=O)NCc2ccco2)CCCCC1 | > 32 µM (inactive)
CCC(=O)Nc1ccc(C(=O)Nc2ccccc2-c2ccccc2)cc1 | > 100 µM (inactive)
Cc1ccc(Nc2nc(C3CCCN3Cc3ccn[nH]3)cs2)nc1 (stereo unspecified) | 6.3 µM

Source: PubChem BioAssay AID1159558 (GlaxoSmithKline (GSK), 2015)
